Test results published in ChEMBL document CHEMBL3763155 (Bioorg Med Chem Lett, 2016).
pIC50, pKi: −log10 of the molar value.

Key:
[1] = Displacement of 125I-[Sar1,Leu8] angiotensin-2 from rat type 1 angiotensin-2 receptor expressed in African green monkey COS7 cells after 24 hrs; type: cell-based; details: cos-7
[2] = target: T1, Type-2 angiotensin II receptor (Homo sapiens, UniProt P50052); assay: Binding affinity to type-2 angiotensin-2 receptor (unknown origin)
T1 sequence (P50052 whole entry): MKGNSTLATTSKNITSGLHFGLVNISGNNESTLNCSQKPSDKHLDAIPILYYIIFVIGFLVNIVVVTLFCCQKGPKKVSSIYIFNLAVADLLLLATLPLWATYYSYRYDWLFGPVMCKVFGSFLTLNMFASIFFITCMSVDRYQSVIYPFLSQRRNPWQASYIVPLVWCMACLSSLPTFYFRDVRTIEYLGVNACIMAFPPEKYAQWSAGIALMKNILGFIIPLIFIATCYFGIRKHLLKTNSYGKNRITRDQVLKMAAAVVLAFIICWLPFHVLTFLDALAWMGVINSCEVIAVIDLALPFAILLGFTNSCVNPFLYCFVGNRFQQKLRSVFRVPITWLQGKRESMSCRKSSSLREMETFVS

pIC50 [1] | pKi [2] | Structure (SMILES) | pKi [1]
7.92 | – | CCCCc1nc(Cl)c(CO)n1Cc1ccc(-c2ccccc2-c2nnn[nH]2)cc1 [LOSARTAN] | –
– | – | CCCCOC(=O)NS(=O)(=O)c1sc(CC(C)C)cc1-c1ccc(Cn2ccnc2)cc1 [BULOXIBUTID] | < 5.00
8.68 | – | CCCCOC(=O)NS(=O)(=O)c1ccc(CC(C)C)cc1-c1ccc(Cn2c(CC)nc3c(C)cc(C)nc32)cc1 | –
– | < 5.00 | CCOc1nc2cccc(C(=O)O)c2n1Cc1ccc(-c2ccccc2-c2nnn[nH]2)cc1 | 9.77
8.82 | – | CCCCOC(=O)NS(=O)(=O)c1ccc(CCC)cc1-c1ccc(Cn2c(CC)nc3c(C)cc(C)nc32)cc1 | –
– | – | CC[C@H](C)[C@H](NC(=O)[C@H](Cc1ccc(O)cc1)NC(=O)[C@@H](NC(=O)[C@H](CCCNC(=N)N)NC(=O)[C@@H](N)CC(=O)O)C(C)C)C(=O)N[C@@H](Cc1cnc[nH]1)C(=O)N1CCC[C@H]1C(=O)N[C@@H](Cc1ccccc1)C(=O)O [ANGIOTENSIN II] | 9.02
– | – | COc1ccc2c(c1OCc1ccccc1)C[C@@H](C(=O)O)N(C(=O)C(c1ccccc1)c1ccccc1)C2 [OLODANRIGAN] | 6.39
